Reference: ChEMBL document CHEMBL3784944, “N-Indolylglycosides bearing modifications at the glucose C6-position as sodium-dependent glucose co-transporter 2 inhibitors” (Bioorg Med Chem, 2016)
Active and inactive are the calls of the source. The rule behind the calls is not given here.

Assays:
[1] = target: T1, Sodium/glucose cotransporter 2 (Homo sapiens, UniProt P31639); assay: Inhibition of human SGLT2 expressed in CHO-K1 cells assessed as reduction in [14C]AMG uptake after 120 mins by scintillation counting method; type: cell-based
T1 sequence (P31639 whole entry): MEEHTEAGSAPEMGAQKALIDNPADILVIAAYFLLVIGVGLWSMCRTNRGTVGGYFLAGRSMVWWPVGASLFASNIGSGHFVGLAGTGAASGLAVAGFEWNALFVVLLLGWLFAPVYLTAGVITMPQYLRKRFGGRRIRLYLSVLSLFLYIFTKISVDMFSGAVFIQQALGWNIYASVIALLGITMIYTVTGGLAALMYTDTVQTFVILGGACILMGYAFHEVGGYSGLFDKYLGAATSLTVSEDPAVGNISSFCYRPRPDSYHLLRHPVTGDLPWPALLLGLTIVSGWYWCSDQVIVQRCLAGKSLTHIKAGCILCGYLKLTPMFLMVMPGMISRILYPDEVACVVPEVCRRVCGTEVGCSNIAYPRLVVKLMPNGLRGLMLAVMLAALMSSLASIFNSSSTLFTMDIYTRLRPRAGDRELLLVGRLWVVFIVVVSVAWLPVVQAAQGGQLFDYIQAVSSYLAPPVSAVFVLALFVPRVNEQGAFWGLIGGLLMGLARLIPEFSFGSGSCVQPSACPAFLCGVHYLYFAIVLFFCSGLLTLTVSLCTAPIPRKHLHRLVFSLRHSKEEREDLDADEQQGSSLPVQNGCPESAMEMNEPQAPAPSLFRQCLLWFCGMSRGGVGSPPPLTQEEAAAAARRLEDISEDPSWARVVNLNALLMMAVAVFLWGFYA

[2] = Clearance in Sprague-Dawley rat at 1.1 mg/kg, iv administered via bolus injection measured at 2 to 5 mins post dose by LC-MS/MS analysis; type: ADME, organism-based; settings: in vivo
[3] = AUC (0 to infinity) in Sprague-Dawley rat at 1.1 mg/kg, iv administered via bolus injection measured at 2 to 5 mins post dose by LC-MS/MS analysis; type: ADME, organism-based; design: dose 1.1 mg/kg, route intravenous, time infinity; settings: in vivo
[4] = Half life in Sprague-Dawley rat at 1.1 mg/kg, iv administered via bolus injection by LC-MS/MS analysis; type: ADME, organism-based; settings: in vivo
[5] = Oral bioavailability in Sprague-Dawley rat at 1.1 mg/kg measured at 15 mins to 24 hrs after drug challenge by LC-MS/MS analysis; type: ADME, organism-based; settings: in vivo
Rattus norvegicus [6] = assay: Induction of glucosuria in Sprague-Dawley rat assessed as increase in glucose excretion per 200 g body weight at 50 mg/kg, administered as single dose via oral gavage after 24 hrs by oral glucose tolerance test (reference value: 0.23 mg); type: functional
[7] = Volume of distribution at steady state in Sprague-Dawley rat at 1.1 mg/kg, iv administered via bolus injection measured at 2 to 5 mins post dose by LC-MS/MS analysis; type: ADME, organism-based; settings: in vivo, read-out: Vdss
[8] = AUC (0 to infinity) in Sprague-Dawley rat at 1.1 mg/kg, po measured at 15 mins to 24 hrs post dose by LC-MS/MS analysis; type: ADME, organism-based; design: dose 1.1 mg/kg, time infinity, route oral; settings: in vivo
Rattus norvegicus [9] = assay: Reduction of blood glucose level in Sprague-Dawley rat at 50 mg/kg, po administered as single dose via oral gavage after 0.5 to 1 hr by oral glucose tolerance test; type: functional, organism-based
[10] = Cmax in Sprague-Dawley rat at 1.1 mg/kg, po measured at 15 mins to 24 hrs post dose by LC-MS/MS analysis; type: ADME, organism-based; design: dose 1.1 mg/kg, route oral; settings: in vivo
Rattus norvegicus [11] = assay: Effect on glucose AUC in Sprague-Dawley rat at 50 mg/kg, po administered as single dose via oral gavage after 0.5 to 1 hr by oral glucose tolerance test; type: functional, organism-based
[12] = Tmax in Sprague-Dawley rat at 1.1 mg/kg, po measured at 15 mins to 24 hrs post dose by LC-MS/MS analysis; type: ADME, organism-based; settings: in vivo
[13] = Half life in Sprague-Dawley rat at 1.1 mg/kg, po by LC-MS/MS analysis; type: ADME, organism-based; settings: in vivo
CHO-K1 = assay: Selectivity ratio of EC50 for human SGLT1 expressed in CHO-K1 cells to EC50 for human SGLT2 expressed in CHO-K1 cells; type: cell-based
Rattus norvegicus [14] = assay: Induction of glucosuria in Sprague-Dawley rat assessed as increase in glucose excretion at 50 mg/kg administered as single dose via oral gavage after 24 hrs by oral glucose tolerance test; type: functional, organism-based

EC50 [1] | SMILES | further results
42 nM | CC(=O)NC[C@H]1O[C@@H](n2cc(Cc3ccc(C4CC4)cc3)c3c(Cl)cccc32)[C@H](O)[C@@H](O)[C@@H]1O | clearance [2]: 18.8 mL/min/kg; AUC(0-inf) [3]: 996 ng·h/mL; half-life [4]: 3.2 h; bioavailability [5]: 10%; Activity (Rattus norvegicus [6]): 101 mg; Vd [7]: 2.7 L/kg; AUC(0-inf) [8]: 99 ng·h/mL; Activity (Rattus norvegicus [9]): Active; Cmax [10]: 25.2 ng/mL; Activity (Rattus norvegicus [11]): inactive; Tmax [12]: 1.2 h; half-life [13]: 2.5 h
3440 nM | O=C(O)CC(=O)NC[C@H]1O[C@@H](n2cc(Cc3ccc(C4CC4)cc3)c3c(Cl)cccc32)[C@H](O)[C@@H](O)[C@@H]1O | –
315 nM | CNC(=S)NC[C@H]1O[C@@H](n2cc(Cc3ccc(C4CC4)cc3)c3c(Cl)cccc32)[C@H](O)[C@@H](O)[C@@H]1O | –
649 nM | CC(C)C(=O)NC[C@H]1O[C@@H](n2cc(Cc3ccc(C4CC4)cc3)c3c(Cl)cccc32)[C@H](O)[C@@H](O)[C@@H]1O | –
113 nM | O=C(CCl)NC[C@H]1O[C@@H](n2cc(Cc3ccc(C4CC4)cc3)c3c(Cl)cccc32)[C@H](O)[C@@H](O)[C@@H]1O | –
151 nM | O=C(CCBr)NC[C@H]1O[C@@H](n2cc(Cc3ccc(C4CC4)cc3)c3c(Cl)cccc32)[C@H](O)[C@@H](O)[C@@H]1O | –
184 nM | O=C(NC[C@H]1O[C@@H](n2cc(Cc3ccc(C4CC4)cc3)c3c(Cl)cccc32)[C@H](O)[C@@H](O)[C@@H]1O)C(Cl)Cl | –
552 nM | O=C(NC[C@H]1O[C@@H](n2cc(Cc3ccc(C4CC4)cc3)c3c(Cl)cccc32)[C@H](O)[C@@H](O)[C@@H]1O)C1CC1 | –
716 nM | CCNC(=S)NC[C@H]1O[C@@H](n2cc(Cc3ccc(C4CC4)cc3)c3c(Cl)cccc32)[C@H](O)[C@@H](O)[C@@H]1O | –
237 nM | NC[C@H]1O[C@@H](n2cc(Cc3ccc(C4CC4)cc3)c3c(Cl)cccc32)[C@H](O)[C@@H](O)[C@@H]1O | Ratio EC50 (CHO-K1): 9
160 nM | O=C(CCCl)NC[C@H]1O[C@@H](n2cc(Cc3ccc(C4CC4)cc3)c3c(Cl)cccc32)[C@H](O)[C@@H](O)[C@@H]1O | –

Continued, compound first:

SMILES | EC50 [1] | further results
O=C(Cc1cccs1)NC[C@H]1O[C@@H](n2cc(Cc3ccc(C4CC4)cc3)c3c(Cl)cccc32)[C@H](O)[C@@H](O)[C@@H]1O | 499 nM | –
CCOC(=O)CC(=O)NC[C@H]1O[C@@H](n2cc(Cc3ccc(C4CC4)cc3)c3c(Cl)cccc32)[C@H](O)[C@@H](O)[C@@H]1O | 118 nM | –
CCOC(=O)CNC(=S)NC[C@H]1O[C@@H](n2cc(Cc3ccc(C4CC4)cc3)c3c(Cl)cccc32)[C@H](O)[C@@H](O)[C@@H]1O | 286 nM | Ratio EC50 (CHO-K1): 3
OC[C@H]1O[C@@H](n2cc(Cc3ccc(C4CC4)cc3)c3c(Cl)cccc32)[C@H](O)[C@@H](O)[C@@H]1O | 14 nM | Ratio EC50 (CHO-K1): 2
COC(=O)C(=O)NC[C@H]1O[C@@H](n2cc(Cc3ccc(C4CC4)cc3)c3c(Cl)cccc32)[C@H](O)[C@@H](O)[C@@H]1O | 284 nM | Ratio EC50 (CHO-K1): 20
COCCCNC(=S)NC[C@H]1O[C@@H](n2cc(Cc3ccc(C4CC4)cc3)c3c(Cl)cccc32)[C@H](O)[C@@H](O)[C@@H]1O | 586 nM | –
O=C(NC[C@H]1O[C@@H](n2cc(Cc3ccc(C4CC4)cc3)c3c(Cl)cccc32)[C@H](O)[C@@H](O)[C@@H]1O)c1ccc(CCl)cc1 | 2590 nM | –
O[C@@H]1[C@@H](O)[C@H](n2cc(Cc3ccc(C4CC4)cc3)c3c(Cl)cccc32)O[C@H](Cn2cc(C3CC3)nn2)[C@H]1O | 359 nM | –
CCOC(=O)CNC(=O)NC[C@H]1O[C@@H](n2cc(Cc3ccc(C4CC4)cc3)c3c(Cl)cccc32)[C@H](O)[C@@H](O)[C@@H]1O | 515 nM | –
CCOC(=O)C(=O)NC[C@H]1O[C@@H](n2cc(Cc3ccc(C4CC4)cc3)c3c(Cl)cccc32)[C@H](O)[C@@H](O)[C@@H]1O | 249 nM | –
O=C(NCCCCl)NC[C@H]1O[C@@H](n2cc(Cc3ccc(C4CC4)cc3)c3c(Cl)cccc32)[C@H](O)[C@@H](O)[C@@H]1O | 151 nM | Ratio EC50 (CHO-K1): 6
O=C(O)c1cn(C[C@H]2O[C@@H](n3cc(Cc4ccc(C5CC5)cc4)c4c(Cl)cccc43)[C@H](O)[C@@H](O)[C@@H]2O)nn1 | 2720 nM | –
O[C@@H]1[C@@H](O)[C@H](n2cc(Cc3ccc(C4CC4)cc3)c3c(Cl)cccc32)O[C@H](Cn2cc(C3CCCC3)nn2)[C@H]1O | 1590 nM | –
COC(=O)CC(=O)NC[C@H]1O[C@@H](n2cc(Cc3ccc(C4CC4)cc3)c3c(Cl)cccc32)[C@H](O)[C@@H](O)[C@@H]1O | 39 nM | Activity (Rattus norvegicus [14]): inactive
O=C(CSc1ccccc1)NC[C@H]1O[C@@H](n2cc(Cc3ccc(C4CC4)cc3)c3c(Cl)cccc32)[C@H](O)[C@@H](O)[C@@H]1O | 2090 nM | –
COC(=O)c1cn(C[C@H]2O[C@@H](n3cc(Cc4ccc(C5CC5)cc4)c4c(Cl)cccc43)[C@H](O)[C@@H](O)[C@@H]2O)nn1 | 119 nM | –
COc1ccc(C(=O)NC[C@H]2O[C@@H](n3cc(Cc4ccc(C5CC5)cc4)c4c(Cl)cccc43)[C@H](O)[C@@H](O)[C@@H]2O)cc1 | 2370 nM | –
CCOC(=O)CCC(=O)NC[C@H]1O[C@@H](n2cc(Cc3ccc(C4CC4)cc3)c3c(Cl)cccc32)[C@H](O)[C@@H](O)[C@@H]1O | 588 nM | –
O=C(NCCCl)NC[C@H]1O[C@@H](n2cc(Cc3ccc(C4CC4)cc3)c3c(Cl)cccc32)[C@H](O)[C@@H](O)[C@@H]1O | 598 nM | –
CCOc1cn(C[C@H]2O[C@@H](n3cc(Cc4ccc(C5CC5)cc4)c4c(Cl)cccc43)[C@H](O)[C@@H](O)[C@@H]2O)nn1 | 655 nM | –
O=C(NC[C@H]1O[C@@H](n2cc(Cc3ccc(C4CC4)cc3)c3c(Cl)cccc32)[C@H](O)[C@@H](O)[C@@H]1O)c1ccno1 | 387 nM | –
CCOC(=O)NC(=O)NC[C@H]1O[C@@H](n2cc(Cc3ccc(C4CC4)cc3)c3c(Cl)cccc32)[C@H](O)[C@@H](O)[C@@H]1O | 1000 nM | –
COc1ccc(NC(=S)NC[C@H]2O[C@@H](n3cc(Cc4ccc(C5CC5)cc4)c4c(Cl)cccc43)[C@H](O)[C@@H](O)[C@@H]2O)cc1 | 485 nM | –
O[C@@H]1[C@@H](O)[C@H](n2cc(Cc3ccc(C4CC4)cc3)c3c(Cl)cccc32)OC[C@H]1O | – | Ratio EC50 (CHO-K1): 2
